From PMC3669129, “Fast, Non-Competitive and Reversible Inhibition of NMDA-Activated Currents by 2-BFI Confers Neuroprotection” (PLoS ONE, 2013)
Like-named read-outs stand apart in the source and are kept apart here.

What was measured:
NMDA receptors = experiment: Whole-cell patch-clamp recording of NMDA-activated current in cultured cortical neurons; assay type: cell-based, rat; details: for EC50: n = 6–8
Description: (§1) Primary cortical neurons were prepared from embryonic E18 Sprague-Dawley rats and cultured in neurobasal medium supplemented with B27 [24]. Briefly, cortices were explanted and cleaned free of meninges. The cortices were placed in D-Hanks’ solution and digested at 37°C with 0.05% trypsin-EDTA for 6 min. They were subsequently resuspended in DMEM medium supplemented with 20% fetal calf serum and 1% penicillin/streptomycin to stop digestion and were further dissociated into individual cells by trituration and plated on poly-D-lysine-coated glass coverslips in culture dishes at a density of 7×10^5 cells/ml. After the neurons had attached to the coverslips for 2 hrs, the medium was changed to neurobasal medium containing 2% B27 supplement. Neurons were incubated at 37°C in a humidified atmosphere of 5% CO2 for 7–8 days before electrophysiological experiments.
Whole-cell patch-clamp recordings were carried out at room temperature (22–25°C) using an Axopatch 700A patch-clamp amplifier (Axon Instruments, Inverurie, Scotland). Data acquisition was achieved using a DigiData 1322A with pClamp 9.0 software. The acquisition rate was 10 kHz and signals were filtered at 5 kHz. Patch electrodes were pulled with a Flaming/Brown micropipette puller (Sutter Instruments, Novato, CA) and fire-polished. […] For the voltage-clamp recordings, the capacity transients were cancelled using the resistance capacitance circuit within the amplifier. After the formation of whole-cell configuration, access resistances were generally <15 MΩ. Series resistance compensation was set to 70%–90%. The liquid junction potential was approximately 2 mV and was auto-adjusted each time by pipette offset. To record NMDA/AMPA-activated currents, the external solution [(containing (mM): NaCl 150, KCl 5, CaCl2 0.2, glucose 10 and HEPES 10, pH adjusted to 7.4 with NaOH)] and the pipette solution [containing (mM): KCl 140, MgCl2 2.5, HEPES 10, EGTA 11, ATP 5, pH adjusted to 7.3 with KOH] were used. For voltage-clamp recordings, the membrane potential was held at −70 mV, unless noted otherwise. Drug solutions were prepared in extracellular solutions and applied to neurons by pressure using the 8-Channel Focal Perfusion System (ALA Scientific Instruments, Farmingdale, NY). Neurons were bathed constantly in extracellular solution between drug applications. Drug solution exchange was accomplished by electronic control.
Patch-clamp data was processed using Clampfit 9.0 (Axon Instruments) and then analyzed in Origin 7.5 (OriginLab, Northampton, MA). The dose-response curve was fitted to the logistic equation: y = (A1–A2)/[1+ (x/x0 )^p]+A2, where y is the response, A1 and A2 are the maximum and minimum response, respectively, x0 is the concentration corresponding to half-maximal effect, x is the drug concentration, and p is the Hill coefficient.
The onset and offset rates of 2-BFI were measured from the recordings by the binding kinetic protocol, where a single concentration of 2-BFI was applied in the constant presence of agonists. Tauon and Tauoff were obtained by a single exponential function fit: I = A×[1-exp(-t/τ)]+I 0, where I is the current, I 0 is the steady-state amplitude of the current, A is the difference between the peak and steady state current amplitudes, t is time, and τ is the time constant.

[1] = target: [3H]2-BFI binding sites (I2-imidazoline receptors); parameters: method as in PMID 9228188; details: cerebral cortex; read-out: Ki for a single class of [3H]2-BFI binding sites; cited from earlier work
[2] = tested on: spectrin breakdown product (SBP); assay type: cell-based, rat; details: 2 h treatment with NMDA; Western blot
[3] = tested on: NMDA receptor-mediated [Ca2+]i influx; experiment: Ratiometric Fura-2 measurement of NMDA-evoked [Ca2+]i in cortical neurons; assay type: cell-based, mouse; details: for reversibility of block of NMDA receptor-mediated [Ca2+]i influx on removal of inhibitor: MK801 10 µM, 2-BFI 200 µM, memantine 10 µM, NMDA 100 µM, wash with PSS, n = 20 cells per treatment
Description: Ratiometric measurement of [Ca^2+]i was performed using Fura-2 AM [25]. Briefly, mouse cortical neurons at 7 days-in-vitro on glass coverslips were loaded with 5 µM Fura-2-AM (Molecular Probes, Eugene, CA) plus 0.02% pluronic (Life Technologies, INC, Burlington, ON, Canada) for 30 min at 37°C. After rinsing with PSS Mg^2+ free buffer containing 2 mM HEPES (pH 7.2), 140 mM NaCl, 5 mM KCl, 2.3 mM CaCl2, and 10 mM glucose, and stabilized in the same buffer for 5 min, Fura-2 intensities were measured using a Northern Eclipse Digital Ratio Image System (EMPIX, Mississauga, ON, Canada) with an Axiovert 200 camera and light source (Zeiss, Thornwood, NY). Fura-2 fluorescence was measured at 510 nm emission with 340/380 nm dual excitation selected by a DG-5 system (Sutter Instrument Company, Novato, CA). [Ca^2+]i concentration was represented by the ratio of florescence intensity between the two excitation wavelengths of R340/380 of Fura-2 after correction for background. R340/380 for 10 cells in one field of each coverslip was averaged. The basal level of [Ca^2+]i was recorded for 20 sec, followed by the application of inhibitors. […] [Ca^2+]i was recorded for 60–100 sec. After washing with PSS buffer for 300 sec, PSS buffer containing 45 mM KCl was added to neurons to record changes in [Ca^2+]i for 60 sec to show viability of neurons. All measurements were repeated for at least 3 times. The data was analyzed using Microsoft Excel and presented as the mean of three experiments.

cortical neurons = experiment: Neuroprotection against NMDA excitotoxicity (nuclear staining, Alamar Blue viability); assay type: cell-based, rat; details: for number of condensed nuclei (NMDA-induced neuronal death): nuclear staining of cortical neurons treated with NMDA
Description: as §1
After 7 days-in-vitro, cortical neurons were treated with the specific inhibitor for 15 min prior to the addition of 100 µM glutamate or 200 µM NMDA at 37°C. The plates were then incubated for up to 24 h at 37°C in the presence or absence of inhibitors. Untreated cells were also included as controls. At the end of the treatment period, cells were either fixed for staining or subjected to a neuronal viability assay using Alamar Blue (Invitrogen). Stained cells were examined under a fluorescent microscope (Carl Zeiss, AX10 vert 200M), and digital images were taken and analyzed using Image J software (http://rsbweb.nih.gov/ij/). The viability of cortical neurons treated with NMDA, and with or without inhibitors as mentioned, was assayed using an Alamar Blue assay (Invitrogen). Briefly, a 1∶10 dilution of Alamar blue was added to cells for 1 h at 37°C. One third of the medium was removed and read in a 96-well plate using a plate reader with λEx = 530 nm and λEm = 590 nm. At minimum, a triplicate reading was obtained per experiment with three independent repeats.

rodents = tested on: rodents; parameters: method as in PMID 19508825, PMID 20840843, PMID 22771326, PMID 19083996, PMID 21303658; details: previous animal studies; cited from earlier work
[4] = parameters: method as in PMID 9228188; details: cited from earlier work
[5] = tested on: transient cerebral ischemia; parameters: method as in PMID 19508825, PMID 20840843, PMID 22771326; details: rodent model of stroke; cited from earlier work
rat cortical neurons = experiment: Effect of 2-BFI alone on neuronal excitability (current and membrane potential); assay type: cell-based; details: 3–1000 µM 2-BFI
Description: as §1
(§2) Whole-cell patch-clamp recordings were carried out at room temperature (22–25°C) using an Axopatch 700A patch-clamp amplifier (Axon Instruments, Inverurie, Scotland). Data acquisition was achieved using a DigiData 1322A with pClamp 9.0 software. The acquisition rate was 10 kHz and signals were filtered at 5 kHz. Patch electrodes were pulled with a Flaming/Brown micropipette puller (Sutter Instruments, Novato, CA) and fire-polished. […]

AMPA receptor = experiment: Whole-cell patch-clamp recording of AMPA-activated current in cultured cortical neurons; assay type: cell-based, rat; details: 200 µM 2-BFI; 100 µM AMPA; paired t-test P>0.05, n = 8
Description: as §1, §2

NMDAR = details: read-out: IC50 of memantine; at −70 mV; ref not given; cited from earlier work

In the case of `c1ccc2oc(C3=NCCN3)cc2c1` [2-BFI, 2-(2-benzofu-ranyl)-2-imidazoline], the “average reversal potential of current activated by NMDA and glycine” value (NMDA receptors; 30 µM NMDA and 1 µM glycine in the presence of 200 µM 2-BFI, n = 6) is reported as 2.8±3.2 mV, the IC50 (NMDA receptors; 30 µM NMDA plus 1 µM glycine, 2-BFI 10–2000 µM pre-applied 30 s, −70 mV, n = 6, read-out: IC50 for inhibition of NMDA-activated current) is reported as 124 ± 13.1 µM and the “slope factor of the concentration-response curve for inhibition of NMDA-activated current” value (NMDA receptors; 30 µM NMDA plus 1 µM glycine, −70 mV, n = 6) is reported as 1.2±0.1. For the same molecule, the “effect on Emax of NMDA and glycine” value (NMDA receptors; 200 µM 2-BFI) was “greatly reduced”, the “inhibition of NMDA-induced currents” value (NMDA receptors; 200 µM 2-BFI, 30 µM NMDA plus 1 µM glycine, paired t-test P<0.001, n = 8) was “marked inhibition” and the “voltage dependence of average inhibition of NMDA-activated current” value (NMDA receptors; 200 µM 2-BFI, membrane potentials from −60 mV to +60 mV, ANOVA P>0.05, n = 6) was “not significantly different”. The “mode of NMDAR antagonism” value (NMDA receptors; EC50s and slope factors of NMDA and glycine unchanged by 200 µM 2-BFI) was “non-competitive antagonist”, the “reversibility of inhibition of NMDA-activated current” value (NMDA receptors; after a few seconds of washing) was “fully reversible” and the Kd (NMDA receptors; from fitted kinetic values, read-out: Kd = Koff/Kon) was 305.94 ± 0.3 µM. The Koff (NMDA receptors; kinetic protocol, constant presence of 30 µM NMDA plus 1 µM glycine, single exponential fit) was 0.67 ± 0.02 s⁻¹, the Ki [1] was 0.0098 µM and the “level of spectrin breakdown product (SBP)” value (“level” for short) [2] was “effectively reduced”. For the same molecule, the “effect on NMDA-evoked [Ca2+]i influx” value ([3]; 10–1000 µM 2-BFI, 100 µM NMDA, n = 20 cells per dose point) was “significantly suppressed”, the “reversibility of block of NMDA receptor-mediated [Ca2+]i influx on removal of inhibitor” value (from here on “reversibility of block … of inhibitor”) [3] was “able to respond to NMDA (100 µM) almost immediately” and the “protection against NMDA toxicity, Alamar blue assay” value (cortical neurons; dose- and time-course, paired t-test P<0.01, n = 8) was “Dose-dependent neuroprotection”. The “number of condensed nuclei (NMDA-induced neuronal death)” value (from here on “number of condensed nuclei”) (cortical neurons) was “reduced”, the “side effects of administration to rodents” value (rodents) was “no visible side effects” and the “crossing of the blood brain barrier” value [4] was “able to cross the blood brain barrier”. The “neuroprotection against transient cerebral ischemia” value [5] was “potently and dose-dependently neuroprotective”, the “effect of 2-BFI alone on membrane potential” value (rat cortical neurons) was “nor affected the membrane potential” and the “current induced by 2-BFI alone” value (rat cortical neurons; −50 mV) was “neither induced any detectable current”. The “inhibition of AMPA-induced currents” value (AMPA receptor) was “did not inhibit”.

In the case of `c1ccc2c(c1)OCC(C1=NCCN1)O2` (stereo not shown) [Idazoxan], the “crossing of the blood brain barrier” value [4] is given as “readily cross the blood brain barrier” and the “neuroprotection against transient cerebral ischemia” value [5] is given as “potently and dose-dependently neuroprotective”.

For `C[C@]12N[C@H](Cc3ccccc31)c1ccccc12` [MK801], the “level” value [2] was “effectively reduced”, the “reversibility of block … of inhibitor” value [3] was “non-reversibly blocked” and the “number of condensed nuclei” value (cortical neurons) was “reduced”.

With `CN[C@H](CC(=O)O)C(=O)O` [NMDA, N-methyl-D-aspartic acid] the “slope factor of NMDA concentration-response curve” value (NMDA receptors; in the absence of 2-BFI, 1 µM glycine) was 1.25±0.1, the EC50 (NMDA receptors; in the absence of 2-BFI, 1 µM glycine, read-out: EC50 of NMDA for current activation) was 33.7 ± 4.3 µM and the “slope factor of NMDA concentration-response curve” value (NMDA receptors; in the presence of 200 µM 2-BFI, 1 µM glycine) was 1.25±0.6.

With `NCC(=O)O` [glycine] the “slope factor of glycine concentration-response curve” value (NMDA receptors; in the absence of 2-BFI, 30 µM NMDA) was 0.39±0.2, the EC50 (NMDA receptors; in the absence of 2-BFI, 30 µM NMDA, read-out: EC50 of glycine for current activation) was 1.52 ± 1.6 µM and the “slope factor of glycine concentration-response curve” value (NMDA receptors; in the presence of 200 µM 2-BFI, 30 µM NMDA) was 0.58±0.6.

For `CC12CC3CC(C)(C1)CC(N)(C3)C2` [memantine], the IC50 (NMDAR) is given as 1.2 µM, the “level” value [2] is given as “effectively reduced” and the “reversibility of block … of inhibitor” value [3] is given as “able to respond to NMDA (100 µM) almost immediately”. The “number of condensed nuclei” value (cortical neurons) was “reduced”.
